Calls of active or inactive are those of the source. The calls are words filed in the database; no cut-off is given here.
Key:
[1] = Selectivity index, ratio of CC50 for cytotoxicity against human HeLa CCL2 cells to EC50 for antiviral activity against CHIKV 122508 infected in human HeLa CCL2 cells; format: toxicity, cell-based; settings: read-out: Ratio CC50/EC50
[2] = Cytotoxicity against human HeLa CCL2 cells assessed as reduction in cell viability measured after 24 hrs by Alamar blue assay; format: functional
Chikungunya virus [3] = assay: Antiviral activity against CHIKV 122508 infected in […] BHK-21 cells assessed as reduction in viral titer at MOI of 1 measured after 24 hpi by viral plaque assay; format: functional, organism-based; settings: Chikungunya virus, 122508, BHK-21
Chikungunya virus [4] = assay: Antiviral activity against CHIKV 122508 infected in human HeLa CCL2 cells assessed as inhibition of viral replication at MOI of 1 at 20 uM incubated for 24 hpi by viral plaque assay; format: functional; settings: time 24 hrs
Chikungunya virus [5] = assay: Antiviral activity against CHIKV 122508 infected in human HeLa CCL2 cells assessed as inhibition of viral replication at MOI of 1 incubated for 24 hpi by immunofluorescence assay; format: functional, organism-based; settings: Chikungunya virus, 122508, HeLa CCL2
Chikungunya virus [6] = assay: Antiviral activity against CHIKV 122508 infected in human HeLa CCL2 cells assessed as inhibition of viral replication at MOI of 1 at 5 uM incubated for 24 hpi by viral plaque assay; format: functional; settings: time 24 hrs
Chikungunya virus [7] = assay: Antiviral activity against CHIKV 122508 infected in human HeLa CCL2 cells assessed as inhibition of viral replication at MOI of 1 at 1 uM incubated for 24 hpi by viral plaque assay; format: functional; settings: time 24 hrs
Chikungunya virus [8] = assay: Antiviral activity against CHIKV 6708 infected in hamster BHK-21 cells assessed as reduction in virus titer in cells; format: functional, organism-based; settings: Chikungunya virus, 6708, BHK-21
Chikungunya virus [9] = assay: Antiviral activity against CHIKV 122508 infected in human HeLa CCL2 cells assessed as inhibition of viral replication at MOI of 1 at 80 uM pretreated for 2 hrs followed by viral infection measured after 1.5 hrs by viral plaque assay (reference value: 6.2); format: functional; settings: time 3.5 hrs
Chikungunya virus [10] = assay: Antiviral activity against CHIKV 122508 infected in human HeLa CCL2 cells assessed as inhibition of viral replication at MOI of 1 at 80 uM incubated for 24 hpi by viral plaque assay; format: functional; design: unit not given here; settings: time 24 hrs
[11] = Selectivity index, ratio of CC50 for Cytotoxicity against hamster BHK-21 cells to EC50 for Antiviral activity against CHIKV 6708 infected in hamster BHK-21 cells; format: toxicity, cell-based; settings: read-out: Ratio CC50/EC50
Chikungunya virus [12] = assay: Antiviral activity against CHIKV 6708 infected in hamster BHK-21 cells assessed as reduction in viral titer at 80 uM post treatment; format: functional, organism-based
BHK-21 = assay: Cytotoxicity against hamster BHK-21 cells assessed as reduction in cell viability; format: functional; settings: Mesocricetus auratus
Chikungunya virus [13] = assay: Antiviral activity against CHIKV 122508 infected in human HeLa CCL2 cells assessed as inhibition of viral replication at MOI of 1 at 40 uM pretreated with compound for 2 hr prior to viral infection by viral plaque assay (reference value: 6.2 %); format: functional
Chikungunya virus [14] = assay: Antiviral activity against CHIKV 122508 mutant infected in hamster BHK-21cells assessed as log reduction in viral titer at 80 uM measured after 14 passage; format: functional, organism-based

| SMILES | selectivity ratio [1] | CC50 [2] | EC50 (Chikungunya virus [3]) | Activity (Chikungunya virus [6]) | further results |
| --- | --- | --- | --- | --- | --- |
| C=C1CC[C@H]2C(C)(C)CCC[C@]2(C)[C@H]1C/C=C1\C(=O)Nc2ncccc21 | 870 | 34.8 µM | 0.04 µM |  | Activity (Chikungunya virus [4]): 1.7 |
| C=C1CC[C@@H]2[C@](C)(CO)[C@H](O)CC[C@@]2(C)[C@@H]1C/C=C1/C(=O)Nc2ccccc21 | 14 | 76.9 µM | 5.52 µM |  | EC50 (Chikungunya virus [5]): 5.5 µM |
| C=C1CC[C@@H]2[C@](C)(CO)[C@H](O)CC[C@@]2(C)[C@@H]1C/C=C1/C(=O)OC[C@H]1O [ANDROGRAPHOLIDE] |  |  |  |  | EC50 (Chikungunya virus [5]): 77 µM |
| C=C1CC[C@H]2C(C)(C)CCC[C@]2(C)[C@H]1C/C=C1/C(=O)Nc2ccc(F)cc21 | 94 | 5.6 µM | 0.06 µM | 1.5 |  |
| C=C1CC[C@H]2C(C)(C)CCC[C@]2(C)[C@H]1C/C=C1\C(=O)Nc2ccc(C)cc21 | 461 | 13.8 µM | 0.03 µM | 0.9 |  |
| C=C1[C@H](O)C[C@H]2C(C)(C)CCC[C@]2(C)[C@H]1C/C=C1/C(=O)Nc2c(Cl)cccc21 | 6100 | 6.1 µM | 0.001 µM |  | Activity (Chikungunya virus [7]): 1.1 |
| C=C1CC[C@H]2C(C)(C)CCC[C@]2(C)[C@H]1C/C=C1/C(=O)Nc2c(F)cccc21 | 4070 | 81.4 µM | 0.02 µM |  | Activity (Chikungunya virus [4]): 2.3 |
| C=C1CC[C@H]2C(C)(C)CCC[C@]2(C)[C@H]1C/C=C1/C(=O)Nc2c(Cl)cccc21 | 83 | 130 µM | 1.55 µM |  | EC50 (Chikungunya virus [8]): 0.14 µM; Activity (Chikungunya virus [9]): 4.6; Activity (Chikungunya virus [10]): 3.9; selectivity ratio [11]: 714; Activity (Chikungunya virus [12]): Active; CC50 (BHK-21): > 100 µM; Activity (Chikungunya virus [13]): 5.2; Activity (Chikungunya virus [14]): Active |
| C=C1CC[C@H]2C(C)(C)CCC[C@]2(C)[C@H]1C/C=C1/C(=O)Nc2cc(C)ccc21 | 12700 | 25.4 µM | 0.002 µM | 1.2 |  |
